Results: ChEMBL document CHEMBL5357048, “A survey of stapling methods to increase affinity, activity, and stability of ghrelin analogues” (RSC Med Chem, 2024)

Tests used:
[1] = target: T1, Growth hormone secretagogue receptor type 1 (Homo sapiens, UniProt Q92847); test: Displacement of [125I]ghrelin from GHSR1a in HEK293 cells by competitive binding assay; assay type: cell-based
[2] = target: T1, Growth hormone secretagogue receptor type 1; test: Displacement of […] [125I]-ghrelin from eYFP-labelled GHSR1a (unknown origin) transfected in HEK293 cells incubated for 20 mins by radioligand binding assay; assay type: cell-based
[3] = target: T1, Growth hormone secretagogue receptor type 1; test: Agonist activity at eYFP/RLuc-tagged GHSR1a (unknown origin) transfected in HEK293 cells assessed as beta-arrestin 1 recruitment incubated for 20 mins by BRET assay; assay type: functional, cell-based
[4] = target: T1, Growth hormone secretagogue receptor type 1; test: Agonist activity at eYFP/RLuc-tagged GHSR1a (unknown origin) transfected in HEK293 cells assessed as beta-arrestin 2 recruitment incubated for 20 mins by BRET assay; assay type: functional, cell-based

T1 sequence (Q92847 whole entry): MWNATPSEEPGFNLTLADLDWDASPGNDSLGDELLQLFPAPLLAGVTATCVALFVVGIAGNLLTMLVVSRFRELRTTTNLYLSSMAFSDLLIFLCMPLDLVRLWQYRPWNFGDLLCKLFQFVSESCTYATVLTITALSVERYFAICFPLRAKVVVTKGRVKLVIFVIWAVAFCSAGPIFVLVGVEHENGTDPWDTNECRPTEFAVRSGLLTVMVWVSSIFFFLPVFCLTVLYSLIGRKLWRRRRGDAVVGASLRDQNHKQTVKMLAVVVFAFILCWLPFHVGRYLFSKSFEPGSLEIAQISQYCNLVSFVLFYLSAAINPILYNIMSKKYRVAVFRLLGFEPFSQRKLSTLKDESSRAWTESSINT

Row | Structure (SMILES) | IC50 [1] | IC50 [2] | EC50 [3] | EC50 [4]
1 | CCCCCCCC(=O)OC[C@H](NC(=O)[C@H](CO)NCC(N)=O)C(=O)N[C@@H](Cc1ccccc1)C(=O)N[C@@H](CC(C)C)C(=O)N[C@@H](CO)C(=O)N1CCC[C@H]1C(=O)N[C@@H](CCC(=O)O)C(=O)N[C@@H](Cc1c[nH]cn1)C(=O)N[C@@H](CCC(N)=O)C(=O)N[C@@H](CCCNC(=N)N)C(=O)N[C@H](C(=O)N[C@@H](CCC(N)=O)C(=O)N[C@@H](CCC(N)=O)C(=O)N[C@@H](CCCNC(=N)N)C(=O)N[C@@H](CCCCN)C(=O)N[C@@H](CCC(=O)O)C(=O)N[C@@H](CO)C(=O)N[C@@H](CCCCN)C(=O)N[C@@H](CCCCN)C(N)=O)C(C)C | 7.9 nM | – | – | –
2 | CCCCCCCC(=O)OC[C@H](NC(=O)[C@H](CO)NCC(N)=O)C(=O)N[C@@H](Cc1ccccc1)C(=O)N[C@@H](CC(C)C)C(=O)N[C@@H](CO)C(=O)N1CCC[C@H]1C(=O)N[C@@H](CCC(=O)O)C(=O)N[C@@H](Cc1c[nH]cn1)C(=O)N[C@@H](CCC(N)=O)C(=O)N[C@@H](CCCNC(=N)N)C(=O)N[C@@]1(C)CCC/C=C\CCC[C@@](C)(C(=O)N[C@@H](CCC(=O)O)C(=O)N[C@@H](CO)C(=O)N[C@@H](CCCCN)C(=O)N[C@@H](CCCCN)C(=O)O)NC(=O)[C@H](CCCNC(=N)N)NC(=O)[C@H](CCC(N)=O)NC(=O)[C@H](CCC(N)=O)NC1=O | – | 1.44 nM | 77.2 nM | 114 nM
3 | CCCCCCCC(=O)OC[C@H](NC(=O)[C@H](CO)NCC(N)=O)C(=O)N[C@@H](Cc1ccccc1)C(=O)N[C@@H](CC(C)C)C(=O)N[C@@H](CO)C(=O)N1CCC[C@H]1C(=O)N[C@@H](CCC(=O)O)C(=O)N[C@@H](Cc1c[nH]cn1)C(=O)N[C@@H](CCC(N)=O)C(=O)N[C@@H](CCCNC(=N)N)C(=O)N[C@H]1CSCc2ccc(cc2)CSC[C@@H](C(=O)N[C@@H](CCC(=O)O)C(=O)N[C@@H](CO)C(=O)N[C@@H](CCCCN)C(=O)N[C@@H](CCCCN)C(=O)O)NC(=O)[C@H](CCCNC(=N)N)NC(=O)[C@H](CCC(N)=O)NC(=O)[C@H](CCC(N)=O)NC1=O | – | 4.93 nM | 91.7 nM | 71.6 nM
